Molecular target: T1, Alpha-1B adrenergic receptor (Rattus norvegicus, UniProt P15823)
T1 sequence (P15823 whole entry): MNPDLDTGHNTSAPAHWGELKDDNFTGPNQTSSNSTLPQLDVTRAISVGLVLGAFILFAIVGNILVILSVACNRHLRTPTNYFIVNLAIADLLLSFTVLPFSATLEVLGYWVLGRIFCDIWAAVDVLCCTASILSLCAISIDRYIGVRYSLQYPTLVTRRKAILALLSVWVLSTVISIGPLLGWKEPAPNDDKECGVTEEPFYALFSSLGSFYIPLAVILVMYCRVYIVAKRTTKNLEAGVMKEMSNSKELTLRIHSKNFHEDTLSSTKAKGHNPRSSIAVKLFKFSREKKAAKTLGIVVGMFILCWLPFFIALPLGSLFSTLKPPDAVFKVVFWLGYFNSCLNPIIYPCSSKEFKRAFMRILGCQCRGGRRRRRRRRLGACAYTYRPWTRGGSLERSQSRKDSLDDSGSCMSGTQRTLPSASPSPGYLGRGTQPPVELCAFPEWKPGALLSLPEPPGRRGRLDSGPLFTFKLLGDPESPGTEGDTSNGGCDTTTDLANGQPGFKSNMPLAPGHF
Test: DRUGMATRIX: Alpha-1B adrenergic receptor radioligand binding (ligand: prazosin)
Assay type: cell membranes, Wistar, Liver, Membrane
Details: Not Active = under 50% inhibition at 10 µM

Row | SMILES | IC50
1 | NC(=O)c1ccccc1O [SALICYLAMIDE] | Not Active
2 | Nc1ccc(S(N)(=O)=O)cc1 [SULFANILAMIDE] | Not Active
3 | CC1CN(c2cc3c(cc2F)c(=O)c(C(=O)O)cn3-c2ccc(F)cc2F)CCN1 (configuration not stated) [TEMAFLOXACIN] | Not Active

Molecular target: Beta-1 adrenergic receptor (Homo sapiens, UniProt P08588)
Sequence (P08588 whole entry): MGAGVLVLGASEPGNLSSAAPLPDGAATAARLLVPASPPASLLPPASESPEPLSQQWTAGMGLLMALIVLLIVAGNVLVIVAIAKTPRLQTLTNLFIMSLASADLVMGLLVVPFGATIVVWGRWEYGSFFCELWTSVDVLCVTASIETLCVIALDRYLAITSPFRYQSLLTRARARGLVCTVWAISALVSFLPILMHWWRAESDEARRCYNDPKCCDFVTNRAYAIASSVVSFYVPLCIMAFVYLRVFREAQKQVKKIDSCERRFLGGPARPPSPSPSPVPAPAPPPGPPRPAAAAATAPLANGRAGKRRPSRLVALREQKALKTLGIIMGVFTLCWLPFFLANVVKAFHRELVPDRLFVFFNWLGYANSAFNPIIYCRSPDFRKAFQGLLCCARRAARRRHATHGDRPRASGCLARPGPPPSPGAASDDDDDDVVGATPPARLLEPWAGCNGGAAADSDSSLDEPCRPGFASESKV
Test: DRUGMATRIX: Adrenergic beta1 radioligand binding (ligand: [125I] Cyanopindolol)
Assay type: cell membranes, CHO-K1, Membrane
Details: cho-k1; Not Active = under 50% inhibition at 10 µM

Row | SMILES | IC50
4 | NC(=O)c1ccccc1O [SALICYLAMIDE] | Not Active
5 | Nc1ccc(S(N)(=O)=O)cc1 [SULFANILAMIDE] | Not Active
6 | CC1CN(c2cc3c(cc2F)c(=O)c(C(=O)O)cn3-c2ccc(F)cc2F)CCN1 (configuration not stated) [TEMAFLOXACIN] | Not Active

Test system: not listed separately
Test: DRUGMATRIX: ATPase, Na+/K+ enzyme inhibition (substrate: ATP)
Assay type: tissue-based, Sus scrofa, Heart
Details: Not Active = under 50% inhibition at 10 µM

Row | SMILES | IC50 | Ki
7 | NC(=O)c1ccccc1O [SALICYLAMIDE] | Not Active | Not Active
8 | Nc1ccc(S(N)(=O)=O)cc1 [SULFANILAMIDE] | Not Active | Not Active
9 | CC1CN(c2cc3c(cc2F)c(=O)c(C(=O)O)cn3-c2ccc(F)cc2F)CCN1 (configuration not stated) [TEMAFLOXACIN] | Not Active | Not Active

Test system: not listed separately
Test: DRUGMATRIX: Calcium Channel Type L, Benzothiazepine radioligand binding (ligand: [3H] Diltiazem)
Assay type: cell membranes, Rattus norvegicus, Wistar, Brain, Membrane
Details: Not Active = under 50% inhibition at 10 µM

Row | SMILES | IC50 | Ki
10 | NC(=O)c1ccccc1O [SALICYLAMIDE] | Not Active | Not Active
11 | Nc1ccc(S(N)(=O)=O)cc1 [SULFANILAMIDE] | Not Active | Not Active
12 | CC1CN(c2cc3c(cc2F)c(=O)c(C(=O)O)cn3-c2ccc(F)cc2F)CCN1 (configuration not stated) [TEMAFLOXACIN] | Not Active | Not Active

Molecular target: T2, 5-hydroxytryptamine receptor 2C (Homo sapiens, UniProt P28335)
T2 sequence (P28335 whole entry): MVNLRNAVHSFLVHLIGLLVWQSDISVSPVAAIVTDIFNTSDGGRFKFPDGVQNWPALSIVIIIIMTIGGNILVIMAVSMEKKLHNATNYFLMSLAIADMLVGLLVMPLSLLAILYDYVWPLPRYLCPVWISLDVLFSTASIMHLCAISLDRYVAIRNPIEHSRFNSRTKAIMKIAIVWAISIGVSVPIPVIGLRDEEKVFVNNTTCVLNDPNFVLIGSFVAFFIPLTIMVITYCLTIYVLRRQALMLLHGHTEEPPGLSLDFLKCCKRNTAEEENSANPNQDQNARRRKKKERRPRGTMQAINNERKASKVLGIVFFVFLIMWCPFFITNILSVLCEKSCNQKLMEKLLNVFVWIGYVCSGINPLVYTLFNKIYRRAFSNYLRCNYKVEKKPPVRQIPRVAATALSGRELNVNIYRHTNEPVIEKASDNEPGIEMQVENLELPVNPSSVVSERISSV
Test: DRUGMATRIX: Serotonin (5-Hydroxytryptamine) 5-HT2C radioligand binding (ligand: [3H] Mesulergine)
Assay type: cell membranes, CHO-K1, Membrane
Details: cho-k1; Not Active = under 50% inhibition at 10 µM

Row | SMILES | IC50
13 | NC(=O)c1ccccc1O [SALICYLAMIDE] | Not Active
14 | Nc1ccc(S(N)(=O)=O)cc1 [SULFANILAMIDE] | Not Active
15 | CC1CN(c2cc3c(cc2F)c(=O)c(C(=O)O)cn3-c2ccc(F)cc2F)CCN1 (configuration not stated) [TEMAFLOXACIN] | Not Active

Test system: not listed separately
Test: DRUGMATRIX: Serotonin (5-Hydroxytryptamine) 5-HT3 radioligand binding (ligand: [3H] GR-65630)
Assay type: cell membranes, Membrane
Details: hek293; Not Active = under 50% inhibition at 10 µM

Row | SMILES | IC50 | Ki
16 | NC(=O)c1ccccc1O [SALICYLAMIDE] | Not Active | Not Active
17 | Nc1ccc(S(N)(=O)=O)cc1 [SULFANILAMIDE] | Not Active | Not Active
18 | CC1CN(c2cc3c(cc2F)c(=O)c(C(=O)O)cn3-c2ccc(F)cc2F)CCN1 (configuration not stated) [TEMAFLOXACIN] | Not Active | Not Active

Molecular target: 5-hydroxytryptamine receptor 6 (Homo sapiens, UniProt P50406); further: in other assays of this panel Not Active means under 50% inhibition at 10 µM
Sequence (P50406 whole entry): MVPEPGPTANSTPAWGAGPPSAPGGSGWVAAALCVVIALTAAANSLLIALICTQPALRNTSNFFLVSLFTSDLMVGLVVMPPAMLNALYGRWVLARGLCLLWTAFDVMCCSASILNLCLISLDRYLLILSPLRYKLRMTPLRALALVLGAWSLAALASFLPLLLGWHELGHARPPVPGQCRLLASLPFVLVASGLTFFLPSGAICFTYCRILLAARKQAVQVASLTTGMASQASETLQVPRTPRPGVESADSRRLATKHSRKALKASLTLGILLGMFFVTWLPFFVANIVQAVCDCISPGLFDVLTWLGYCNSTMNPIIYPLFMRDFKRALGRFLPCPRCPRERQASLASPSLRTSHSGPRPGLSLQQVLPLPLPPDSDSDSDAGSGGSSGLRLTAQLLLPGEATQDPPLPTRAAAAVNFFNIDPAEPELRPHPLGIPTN
Assay type: cell membranes, HeLa, Membrane
Details: hela

Row | SMILES | IC50
19 | NC(=O)c1ccccc1O [SALICYLAMIDE] | Not Active
20 | Nc1ccc(S(N)(=O)=O)cc1 [SULFANILAMIDE] | Not Active
21 | CC1CN(c2cc3c(cc2F)c(=O)c(C(=O)O)cn3-c2ccc(F)cc2F)CCN1 (configuration not stated) [TEMAFLOXACIN] | Not Active

Molecular target: Sigma non-opioid intracellular receptor 1 (Homo sapiens, UniProt Q99720)
Sequence (Q99720 whole entry): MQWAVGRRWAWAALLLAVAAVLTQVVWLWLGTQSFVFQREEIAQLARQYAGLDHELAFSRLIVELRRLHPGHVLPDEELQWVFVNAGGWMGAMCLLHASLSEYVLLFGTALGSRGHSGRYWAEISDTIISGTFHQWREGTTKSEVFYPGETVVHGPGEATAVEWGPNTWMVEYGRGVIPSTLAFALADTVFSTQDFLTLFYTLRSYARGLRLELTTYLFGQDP
Test: DRUGMATRIX: Sigma1 radioligand binding (ligand: [3H] Haloperidol)
Assay type: cell membranes, Jurkat, Membrane
Details: jurkat; Not Active = under 50% inhibition at 10 µM

Row | SMILES | IC50
22 | NC(=O)c1ccccc1O [SALICYLAMIDE] | Not Active
23 | Nc1ccc(S(N)(=O)=O)cc1 [SULFANILAMIDE] | Not Active
24 | CC1CN(c2cc3c(cc2F)c(=O)c(C(=O)O)cn3-c2ccc(F)cc2F)CCN1 (configuration not stated) [TEMAFLOXACIN] | Not Active

Test system: not listed separately
Test: DRUGMATRIX: Calcium Channel Type L, Phenylalkylamine radioligand binding (ligand: [3H] (-)-Desmethoxyverapamil (D-888))
Assay type: cell membranes, Rattus norvegicus, Wistar, Brain, Membrane
Details: Not Active = under 50% inhibition at 10 µM

Row | SMILES | IC50 | Ki
25 | NC(=O)c1ccccc1O [SALICYLAMIDE] | Not Active | Not Active
26 | Nc1ccc(S(N)(=O)=O)cc1 [SULFANILAMIDE] | Not Active | Not Active
27 | CC1CN(c2cc3c(cc2F)c(=O)c(C(=O)O)cn3-c2ccc(F)cc2F)CCN1 (configuration not stated) [TEMAFLOXACIN] | Not Active | Not Active

Molecular target: T3, Endothelin-1 receptor (Homo sapiens, UniProt P25101); further: in other assays of this panel Not Active means under 50% inhibition at 10 µM
T3 sequence (P25101 whole entry): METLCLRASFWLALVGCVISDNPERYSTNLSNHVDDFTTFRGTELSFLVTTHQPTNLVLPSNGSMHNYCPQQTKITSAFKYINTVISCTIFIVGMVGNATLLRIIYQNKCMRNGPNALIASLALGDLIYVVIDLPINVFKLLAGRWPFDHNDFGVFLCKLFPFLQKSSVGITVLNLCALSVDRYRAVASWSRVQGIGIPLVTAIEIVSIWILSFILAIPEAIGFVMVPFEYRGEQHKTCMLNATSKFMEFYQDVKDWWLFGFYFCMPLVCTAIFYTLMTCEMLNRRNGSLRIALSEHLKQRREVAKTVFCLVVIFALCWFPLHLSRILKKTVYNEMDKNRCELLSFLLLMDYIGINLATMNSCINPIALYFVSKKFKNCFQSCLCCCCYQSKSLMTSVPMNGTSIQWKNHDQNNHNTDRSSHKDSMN
Assay type: cell membranes, Membrane
Details: cho-k1

Row | SMILES | IC50
28 | NC(=O)c1ccccc1O [SALICYLAMIDE] | Not Active
29 | Nc1ccc(S(N)(=O)=O)cc1 [SULFANILAMIDE] | Not Active
30 | CC1CN(c2cc3c(cc2F)c(=O)c(C(=O)O)cn3-c2ccc(F)cc2F)CCN1 (configuration not stated) [TEMAFLOXACIN] | Not Active

Test system: not listed separately
Test: DRUGMATRIX: GABAA, Muscimol, Central radioligand binding (ligand: [3H] Muscimol)
Assay type: cell membranes, Rattus norvegicus, Wistar, Brain, Membrane
Details: Not Active = under 50% inhibition at 10 µM

Row | SMILES | IC50 | Ki
31 | NC(=O)c1ccccc1O [SALICYLAMIDE] | Not Active | Not Active
32 | Nc1ccc(S(N)(=O)=O)cc1 [SULFANILAMIDE] | Not Active | Not Active
33 | CC1CN(c2cc3c(cc2F)c(=O)c(C(=O)O)cn3-c2ccc(F)cc2F)CCN1 (configuration not stated) [TEMAFLOXACIN] | Not Active | Not Active

Test system: not listed separately
Test: DRUGMATRIX: Glutamate, Kainate radioligand binding (ligand: [3H] Kainic acid)
Assay type: cell membranes, Rattus norvegicus, Wistar, Brain, Membrane
Details: Not Active = under 50% inhibition at 10 µM

Row | SMILES | IC50 | Ki
34 | NC(=O)c1ccccc1O [SALICYLAMIDE] | Not Active | Not Active
35 | Nc1ccc(S(N)(=O)=O)cc1 [SULFANILAMIDE] | Not Active | Not Active
36 | CC1CN(c2cc3c(cc2F)c(=O)c(C(=O)O)cn3-c2ccc(F)cc2F)CCN1 (configuration not stated) [TEMAFLOXACIN] | Not Active | Not Active

Molecular target: Melanocortin receptor 4 (Homo sapiens, UniProt P32245); further: in other assays of this panel Not Active means under 50% inhibition at 10 µM
Sequence (P32245 whole entry): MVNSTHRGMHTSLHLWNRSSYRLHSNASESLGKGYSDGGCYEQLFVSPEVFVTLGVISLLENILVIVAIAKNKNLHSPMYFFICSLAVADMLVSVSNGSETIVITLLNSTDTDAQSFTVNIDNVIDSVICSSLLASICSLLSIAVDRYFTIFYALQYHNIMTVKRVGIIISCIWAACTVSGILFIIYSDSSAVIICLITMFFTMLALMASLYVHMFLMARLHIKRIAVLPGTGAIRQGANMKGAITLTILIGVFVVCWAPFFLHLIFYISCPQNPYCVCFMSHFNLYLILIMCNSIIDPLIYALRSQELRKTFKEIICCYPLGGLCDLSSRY
Assay type: cell membranes, Membrane
Details: hek293

Row | SMILES | IC50
37 | NC(=O)c1ccccc1O [SALICYLAMIDE] | Not Active
38 | Nc1ccc(S(N)(=O)=O)cc1 [SULFANILAMIDE] | Not Active
39 | CC1CN(c2cc3c(cc2F)c(=O)c(C(=O)O)cn3-c2ccc(F)cc2F)CCN1 (configuration not stated) [TEMAFLOXACIN] | Not Active

Molecular target: T4, Neuropeptide Y receptor type 2 (Homo sapiens, UniProt P49146); further: in other assays of this panel Not Active means under 50% inhibition at 10 µM
T4 sequence (P49146 whole entry): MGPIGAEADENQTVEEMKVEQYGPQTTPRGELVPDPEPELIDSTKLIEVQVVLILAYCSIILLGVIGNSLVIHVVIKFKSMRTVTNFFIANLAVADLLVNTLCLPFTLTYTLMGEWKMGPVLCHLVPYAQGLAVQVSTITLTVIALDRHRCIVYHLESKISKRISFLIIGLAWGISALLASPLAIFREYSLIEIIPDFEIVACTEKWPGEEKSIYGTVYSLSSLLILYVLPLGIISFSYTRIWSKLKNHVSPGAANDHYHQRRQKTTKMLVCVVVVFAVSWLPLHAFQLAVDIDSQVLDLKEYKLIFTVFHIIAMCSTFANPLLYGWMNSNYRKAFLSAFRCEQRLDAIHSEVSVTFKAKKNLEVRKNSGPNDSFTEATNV
Assay type: cell membranes, Membrane
Details: kan-ts

Row | SMILES | IC50
40 | NC(=O)c1ccccc1O [SALICYLAMIDE] | Not Active
41 | Nc1ccc(S(N)(=O)=O)cc1 [SULFANILAMIDE] | Not Active
42 | CC1CN(c2cc3c(cc2F)c(=O)c(C(=O)O)cn3-c2ccc(F)cc2F)CCN1 (configuration not stated) [TEMAFLOXACIN] | Not Active

Test system: not listed separately
Test: DRUGMATRIX: Nicotinic Acetylcholine radioligand binding (ligand: [125I] Epibatidine)
Assay type: cell membranes, Membrane
Details: imr-32; Not Active = under 50% inhibition at 10 µM

Row | SMILES | IC50 | Ki
43 | NC(=O)c1ccccc1O [SALICYLAMIDE] | Not Active | Not Active
44 | Nc1ccc(S(N)(=O)=O)cc1 [SULFANILAMIDE] | Not Active | Not Active
45 | CC1CN(c2cc3c(cc2F)c(=O)c(C(=O)O)cn3-c2ccc(F)cc2F)CCN1 (configuration not stated) [TEMAFLOXACIN] | Not Active | Not Active

Molecular target: Kappa-type opioid receptor (Homo sapiens, UniProt P41145)
Sequence (P41145 whole entry): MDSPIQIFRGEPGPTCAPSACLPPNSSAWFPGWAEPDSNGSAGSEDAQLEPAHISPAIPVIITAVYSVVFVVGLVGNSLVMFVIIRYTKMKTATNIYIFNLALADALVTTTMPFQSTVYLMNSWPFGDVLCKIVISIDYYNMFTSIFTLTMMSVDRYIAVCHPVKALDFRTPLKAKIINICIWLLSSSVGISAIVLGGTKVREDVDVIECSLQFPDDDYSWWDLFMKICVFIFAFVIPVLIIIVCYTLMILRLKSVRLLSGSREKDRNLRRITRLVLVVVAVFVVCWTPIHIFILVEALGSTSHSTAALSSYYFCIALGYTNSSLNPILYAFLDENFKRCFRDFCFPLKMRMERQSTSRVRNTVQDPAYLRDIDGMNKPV
Test: DRUGMATRIX: Opiate kappa (OP2, KOP) radioligand binding (ligand: [3H] Diprenorphine)
Assay type: cell membranes, HEK293, Membrane
Details: hek293; Not Active = under 50% inhibition at 10 µM

Row | SMILES | IC50
46 | NC(=O)c1ccccc1O [SALICYLAMIDE] | Not Active
47 | Nc1ccc(S(N)(=O)=O)cc1 [SULFANILAMIDE] | Not Active
48 | CC1CN(c2cc3c(cc2F)c(=O)c(C(=O)O)cn3-c2ccc(F)cc2F)CCN1 (configuration not stated) [TEMAFLOXACIN] | Not Active

Molecular target: Mu-type opioid receptor (Homo sapiens, UniProt P35372)
Sequence (P35372 whole entry): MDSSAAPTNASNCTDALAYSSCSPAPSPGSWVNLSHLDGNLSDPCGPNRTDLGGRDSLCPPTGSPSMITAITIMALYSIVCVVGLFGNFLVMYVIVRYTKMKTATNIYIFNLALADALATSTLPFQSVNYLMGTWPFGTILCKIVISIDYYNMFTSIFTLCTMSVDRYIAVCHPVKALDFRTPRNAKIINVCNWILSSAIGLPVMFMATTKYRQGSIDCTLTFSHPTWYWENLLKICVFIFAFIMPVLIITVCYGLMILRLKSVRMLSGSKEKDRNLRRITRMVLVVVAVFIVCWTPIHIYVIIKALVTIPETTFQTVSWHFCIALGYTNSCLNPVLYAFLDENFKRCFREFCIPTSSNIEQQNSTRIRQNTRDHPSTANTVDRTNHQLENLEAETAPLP
Test: DRUGMATRIX: Opiate mu (OP3, MOP) radioligand binding (ligand: [3H] Diprenorphine)
Assay type: cell membranes, CHO-K1, Membrane
Details: cho-k1; Not Active = under 50% inhibition at 10 µM

Row | SMILES | IC50
49 | NC(=O)c1ccccc1O [SALICYLAMIDE] | Not Active
50 | Nc1ccc(S(N)(=O)=O)cc1 [SULFANILAMIDE] | Not Active
51 | CC1CN(c2cc3c(cc2F)c(=O)c(C(=O)O)cn3-c2ccc(F)cc2F)CCN1 (configuration not stated) [TEMAFLOXACIN] | Not Active

From ChEMBL document CHEMBL1909046, “DrugMatrix in vitro pharmacology data”
